target: JAK1 (Homo sapiens (Human), UniProt P23458); experiment: Analysis of JAK1 activity inhibition ability (ADP-Glo Kinase Assay); type: biochemical; conditions: JAK1 enzyme, ADP-Glo luminescence, ATP 250 uM, IRS-itide substrate, 30° C. 40 minutes; read-out: IC50
How it was run: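 ADP-Glo luminescence read-out of ADP production, with IC50 taken as the concentration halving JAK1 activity relative to control. Enzyme was incubated 40 min at 30 °C with compound, IRS-itide (40 ng/mL) and ATP (250 uM), concentrations as prepared in pH 7.5 Tris-HCl/MgCl2/BSA/DTT buffer.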

JAK1, sequence (P23458 whole entry): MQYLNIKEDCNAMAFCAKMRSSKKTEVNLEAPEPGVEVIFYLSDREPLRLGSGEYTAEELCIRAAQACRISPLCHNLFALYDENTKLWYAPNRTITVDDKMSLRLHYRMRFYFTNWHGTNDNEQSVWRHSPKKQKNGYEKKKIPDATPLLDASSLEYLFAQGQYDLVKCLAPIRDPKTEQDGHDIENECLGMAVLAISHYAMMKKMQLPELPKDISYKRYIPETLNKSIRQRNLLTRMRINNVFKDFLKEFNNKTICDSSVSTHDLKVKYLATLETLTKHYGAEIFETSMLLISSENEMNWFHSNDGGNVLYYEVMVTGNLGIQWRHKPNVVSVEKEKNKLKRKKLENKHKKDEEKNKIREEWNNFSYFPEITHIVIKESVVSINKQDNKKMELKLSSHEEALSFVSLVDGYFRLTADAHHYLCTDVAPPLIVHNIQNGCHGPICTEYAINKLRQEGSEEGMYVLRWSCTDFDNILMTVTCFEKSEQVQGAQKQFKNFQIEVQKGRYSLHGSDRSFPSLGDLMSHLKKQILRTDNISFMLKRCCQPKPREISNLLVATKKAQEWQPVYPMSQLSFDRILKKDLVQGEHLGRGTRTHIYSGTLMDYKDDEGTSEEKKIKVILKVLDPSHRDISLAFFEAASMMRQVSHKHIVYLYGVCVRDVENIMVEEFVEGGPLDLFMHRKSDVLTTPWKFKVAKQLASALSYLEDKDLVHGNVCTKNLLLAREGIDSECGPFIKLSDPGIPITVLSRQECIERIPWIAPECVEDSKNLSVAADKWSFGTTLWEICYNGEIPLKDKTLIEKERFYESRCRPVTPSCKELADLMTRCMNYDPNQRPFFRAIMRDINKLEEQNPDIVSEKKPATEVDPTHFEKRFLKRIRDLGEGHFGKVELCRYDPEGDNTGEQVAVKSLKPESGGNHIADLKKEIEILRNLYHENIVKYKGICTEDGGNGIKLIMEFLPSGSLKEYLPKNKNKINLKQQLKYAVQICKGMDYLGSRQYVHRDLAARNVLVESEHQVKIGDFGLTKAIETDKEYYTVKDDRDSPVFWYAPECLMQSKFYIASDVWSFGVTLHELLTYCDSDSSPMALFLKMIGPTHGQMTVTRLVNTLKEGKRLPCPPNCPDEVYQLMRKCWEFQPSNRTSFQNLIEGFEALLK

Q: For O=C(Nc1cc(-c2cc(F)c(CN3CCOCC3)c(F)c2)c2cc[nH]c2n1)C1CC1 [Example 590, N-(4-(3,5-difluoro-4-(morpholinomethyl)phenyl)-1H-pyrrolo[2,3-b]pyridin-6-yl)cyclopropanecarboxamide], which IC50 is on record?
A: Its IC50 is under 20 nM.

Q: O=C(Nc1cc(-c2ccc(CCN3CCS(=O)(=O)CC3)cc2)c2cc[nH]c2n1)C1CC1 [Example 591, N-(4-(4-(2-(1,1-dioxidothiomorpholino)ethyl)phenyl)-1H-pyrrolo[2,3-b]pyridin-6-yl)cyclopropanecarboxamide] was tested. Which IC50 did it give?
A: The IC50 was 20 to 200 nM.

Q: O=C(Nc1nc(-c2ccc(CN3CCS(=O)(=O)CC3)cc2)c2nc[nH]c2n1)C1CC1 [Example 592, N-(6-(4-((1,1-dioxidothiomorpholino)methyl)phenyl)-9H-purin-2-yl)cyclopropanecarboxamide] was tested. Which IC50 did it give?
A: The IC50 was over 200 nM.

Q: For Cc1nnn(Cc2ccc(-c3cc(NC(=O)C4CC4)nc4[nH]cnc34)cc2)n1 [Example 593, N-(7-(4-((5-methyl-2H-tetrazol-2-yl)methyl)phenyl)-3H-imidazo[4,5-b]pyridin-5-yl)cyclopropanecarboxamide], which IC50 is on record?
A: Its IC50 is over 200 nM.

Q: With Cc1nnnn1Cc1ccc(-c2cc(NC(=O)C3CC3)nc3[nH]cnc23)cc1 [Example 594, N-(7-(4-((5-methyl-1H-tetrazol-1-yl)methyl)phenyl)-3H-imidazo[4,5-b]pyridin-5-yl)cyclopropanecarboxamide] as the compound, how does the IC50 read?
A: Its IC50 is over 200 nM.

Q: For O=C(Nc1cc(-c2ccc(CNC3CCS(=O)(=O)C3)cc2)c2cc[nH]c2n1)C1CC1 (stereo not shown) [Example 595, N-(4-(4-(((1,1-dioxidotetrahydrothiophen-3-yl)amino)methyl)phenyl)-1H-pyrrolo[2,3-b]pyridin-6-yl)cyclopropanecarboxamide], which IC50 is on record?
A: The IC50 was 20 to 200 nM.

Q: How did the IC50 turn out when O=C(Nc1cc(-c2ccc(CNC3CCS(=O)(=O)CC3)cc2)c2cc[nH]c2n1)C1CC1 [Example 596, N-(4-(4-(((1,1-dioxidotetrahydro-2H-thiopyran-4-yl)amino)methyl)phenyl)-1H-pyrrolo[2,3-b]pyridin-6-yl)cyclopropanecarboxamide] was run?
A: The IC50 was 20 to 200 nM.

Q: Which IC50 does the source give for O=C(Nc1nc(-c2ccc(CNc3ccc(F)cc3)cc2)c2nc[nH]c2n1)C1CC1 [Example 597, N-(6-(4-(((4-fluorophenyl)amino)methyl)phenyl)-9H-purin-2-yl)cyclopropanecarboxamide] here?
A: The IC50 was over 200 nM.

Q: With O=C(Nc1nc(-c2ccc(CNc3cccc(F)c3)cc2)c2nc[nH]c2n1)C1CC1 [Example 598, N-(6-(4-(((3-fluorophenyl)amino)methyl)phenyl)-9H-purin-2-yl)cyclopropanecarboxamide] as the compound, how does the IC50 read?
A: Its IC50 is over 200 nM.

Q: O=C(Nc1cc(-c2cnn(C3CN(S(=O)(=O)C(F)(F)F)C3)c2)c2cc[nH]c2n1)C1CC1 [Example 599, N-(4-(1-(1-((trifluoromethyl)sulfonyl)azetidin-3-yl)-1H-pyrazol-4-yl)-1H-pyrrolo[2,3-b]pyridin-6-yl)cyclopropanecarboxamide] was tested. Which IC50 did it give?
A: The IC50 was under 20 nM.

Q: How did the IC50 turn out when O=C(Nc1cc(-c2cnn(C3CNC3)c2)c2cc[nH]c2n1)C1CC1 [Example 600, N-(4-(1-(azetidin-3-yl)-1H-pyrazol-4-yl)-1H-pyrrolo[2,3-b]pyridin-6-yl)cyclopropanecarboxamide] was run?
A: Its IC50 is 20 to 200 nM.

Q: CCS(=O)(=O)N1CC(n2cc(-c3cc(NC(=O)C4CC4)nc4[nH]ccc34)cn2)C1 [Example 601, N-(4-(1-(1-(ethylsulfonyl)azetidin-3-yl)-1H-pyrazol-4-yl)-1H-pyrrolo[2,3-b]pyridin-6-yl)cyclopropanecarboxamide] was tested. Which IC50 did it give?
A: The IC50 was 20 to 200 nM.

Q: How did the IC50 turn out when CCCCS(=O)(=O)N1CC(n2cc(-c3cc(NC(=O)C4CC4)nc4[nH]ccc34)cn2)C1 [Example 602, N-(4-(1-(1-(butylsulfonyl)azetidin-3-yl)-1H-pyrazol-4-yl)-1H-pyrrolo[2,3-b]pyridin-6-yl)cyclopropanecarboxamide] was run?
A: Its IC50 is over 200 nM.

Q: CS(=O)(=O)N1CC(n2cc(-c3cc(NC(=O)C4CC4)nc4[nH]ccc34)cn2)C1 [Example 603, N-(4-(1-(1-(methylsulfonyl)azetidin-3-yl)-1H-pyrazol-4-yl)-1H-pyrrolo[2,3-b]pyridin-6-yl)cyclopropanecarboxamide] was tested. Which IC50 did it give?
A: Its IC50 is 20 to 200 nM.

Q: Which IC50 does the source give for O=C(Nc1cc(-c2cnn(C3CN(S(=O)(=O)c4ccccc4)C3)c2)c2cc[nH]c2n1)C1CC1 [Example 604, N-(4-(1-(1-(phenylsulfonyl)azetidin-3-yl)-1H-pyrazol-4-yl)-1H-pyrrolo[2,3-b]pyridin-6-yl)cyclopropanecarboxamide] here?
A: Its IC50 is 20 to 200 nM.

Q: O=C(Nc1cc(-c2cnn(C3CN(S(=O)(=O)c4ccc(F)c(F)c4)C3)c2)c2cc[nH]c2n1)C1CC1 [Example 605, N-(4-(1-(1-((3,4-difluorophenyl)sulfonyl)azetidin-3-yl)-1H-pyrazol-4-yl)-1H-pyrrolo[2,3-b]pyridin-6-yl)cyclopropanecarboxamide] was tested. Which IC50 did it give?
A: Its IC50 is 20 to 200 nM.

Q: For O=C(Nc1cc(-c2cnn(C3CN(S(=O)(=O)C4CCCCC4)C3)c2)c2cc[nH]c2n1)C1CC1 [Example 606, N-(4-(1-(1-(cyclohexylsulfonyl)azetidin-3-yl)-1H-pyrazol-4-yl)-1H-pyrrolo[2,3-b]pyridin-6-yl)cyclopropanecarboxamide], which IC50 is on record?
A: The IC50 was over 200 nM.

Q: How did the IC50 turn out when CS(=O)(=O)N1CCC(n2cc(-c3cc(NC(=O)C4CC4)nc4[nH]ccc34)cn2)CC1 [Example 607, N-(4-(1-(1-(methylsulfonyl)piperidin-4-yl)-1H-pyrazol-4-yl)-1H-pyrrolo[2,3-b]pyridin-6-yl)cyclopropanecarboxamide] was run?
A: Its IC50 is 20 to 200 nM.

Q: Which IC50 does the source give for CCS(=O)(=O)N1CCC(n2cc(-c3cc(NC(=O)C4CC4)nc4[nH]ccc34)cn2)CC1 [Example 608, N-(4-(1-(1-(ethylsulfonyl)piperidin-4-yl)-1H-pyrazol-4-yl)-1H-pyrrolo[2,3-b]pyridin-6-yl)cyclopropanecarboxamide] here?
A: The IC50 was 20 to 200 nM.

Q: With O=C(Nc1cc(-c2cnn(C3CCN(S(=O)(=O)C(F)(F)F)CC3)c2)c2cc[nH]c2n1)C1CC1 [Example 609, N-(4-(1-(1-((trifluoromethyl)sulfonyl)piperidin-4-yl)-1H-pyrazol-4-yl)-1H-pyrrolo[2,3-b]pyridin-6-yl)cyclopropanecarboxamide] as the compound, how does the IC50 read?
A: Its IC50 is 20 to 200 nM.

Q: With N#CCC(=O)N1CC(n2cc(-c3cc(NC(=O)C4CC4)nc4[nH]ccc34)cn2)C1 [Example 610, N-(4-(1-(1-(2-cyanoacetyl)azetidin-3-yl)-1H-pyrazol-4-yl)-1H-pyrrolo[2,3-b]pyridin-6-yl)cyclopropanecarboxamide] as the compound, how does the IC50 read?
A: The IC50 was 20 to 200 nM.

Q: With N#CCN1CCC(n2cc(-c3cc(NC(=O)C4CC4)nc4[nH]ccc34)cn2)CC1 [Example 611, N-(4-(1-(1-(cyanomethyl)piperidin-4-yl)-1H-pyrazol-4-yl)-1H-pyrrolo[2,3-b]pyridin-6-yl)cyclopropanecarboxamide] as the compound, how does the IC50 read?
A: Its IC50 is 20 to 200 nM.

Q: Which IC50 does the source give for N#CCC1(N2CC=C(c3cc(NC(=O)C4CC4)nc4[nH]ccc34)CC2)COC1 [Example 612, N-(4-(1-(3-(cyanomethyl)oxetan-3-yl)-1,2,3,6-tetrahydropyridin-4-yl)-1H-pyrrolo[2,3-b]pyridine-6-yl) cyclopropanecarboxamide] here?
A: Its IC50 is over 200 nM.

Q: Which IC50 does the source give for CC1CN(C2(CC#N)COC2)CC=C1c1cc(NC(=O)C2CC2)nc2[nH]ccc12 (stereo not shown) [Example 613, N-(4-(1-(3-(cyanomethyl)oxetan-3-yl)-3-methyl-1,2,3,6-tetrahydropyridin-4-yl)-1H-pyrrolo[2,3-b]pyridin-6-yl)cyclopropanecarboxamide] here?
A: The IC50 was 20 to 200 nM.

Q: With CC(C)(C)OC(=O)N1CC(CC#N)(N2CC=C(c3cc(NC(=O)C4CC4)nc4[nH]ccc34)CC2)C1 [Example 614, tert-butyl 3-(cyanomethyl)-3-(4-(6-(cyclopropanecarboxamido)-1H-pyrrolo[2,3-b]pyridin-4-yl)-3,6-dihydropyridin-1 (2H)-yl)azetidine-1-carboxylate] as the compound, how does the IC50 read?
A: Its IC50 is over 200 nM.

Q: N#CCC1(N2CC=C(c3cc(NC(=O)C4CC4)nc4[nH]ccc34)CC2)CNC1 [Example 615, N-(4-(1-(3-(cyanomethyl)azetidin-3-yl)-1,2,3,6-tetrahydropyridin-4-yl)-1H-pyrrolo[2,3-b]pyridin-6-yl)cyclopropanecarboxamide] was tested. Which IC50 did it give?
A: The IC50 was 20 to 200 nM.

Q: For CCS(=O)(=O)N1CC(CC#N)(N2CC=C(c3cc(NC(=O)C4CC4)nc4[nH]ccc34)CC2)C1 [Example 616, N-(4-(1-(3-(cyanomethyl)-1-(ethylsulfonyl)azetidin-3-yl)-1,2,3,6-tetrahydropyridin-4-yl)-1H-pyrrolo[2,3-b]pyridin-6-yl)cyclopropanecarboxamide], which IC50 is on record?
A: The IC50 was under 20 nM.

Q: For CC(C)S(=O)(=O)N1CC(CC#N)(N2CC=C(c3cc(NC(=O)C4CC4)nc4[nH]ccc34)CC2)C1 [Example 617, N-(4-(1-(3-(cyanomethyl)-1-(isopropylsulfonyl)azetidin-3-yl)-1,2,3,6-tetrahydropyridin-4-yl)-1H-pyrrolo[2,3-b]pyridin-6-yl)cyclopropanecarboxamide], which IC50 is on record?
A: The IC50 was under 20 nM.

Q: For N#CCCCS(=O)(=O)N1CC(CC#N)(N2CC=C(c3cc(NC(=O)C4CC4)nc4[nH]ccc34)CC2)C1 [Example 618, N-(4-(1-(3-(cyanomethyl)-1-((3-cyanopropyl)sulfonyl)azetidin-3-yl)-1,2,3,6-tetrahydropyridin-4-yl)-1H-pyrrolo[2,3-b]pyridin-6-yl)cyclopropanecarboxamide], which IC50 is on record?
A: The IC50 was under 20 nM.

Q: How did the IC50 turn out when N#CCC1(N2CC=C(c3cc(NC(=O)C4CC4)nc4[nH]ccc34)CC2)CN(S(=O)(=O)C(F)(F)F)C1 [Example 619, N-(4-(1-(3-(cyanomethyl)-1-((trifluoromethyl)sulfonyl)azetidin-3-yl)-1,2,3,6-tetrahydropyridin-4-yl)-1H-pyrrolo[2,3-b]pyridin-6-yl)cyclopropanecarboxamide] was run?
A: Its IC50 is under 20 nM.

Q: With N#CCC1(N2CC=C(c3cc(NC(=O)C4CC4)nc4[nH]ccc34)CC2)CN(C2CCNCC2)C1 [Example 620, N-(4-(1-(3-(cyanomethyl)-1-(piperidin-4-yl)azetidin-3-yl)-1,2,3,6-tetrahydropyridin-4-yl)-1H-pyrrolo[2,3-b]pyridin-6-yl)cyclopropanecarboxamide] as the compound, how does the IC50 read?
A: Its IC50 is over 200 nM.

From patent US11524968B2, “Heterocyclic compound as a protein kinase inhibitor” (HK inno.N Corporation, priority 2017, dated 2022)
